Assay [1] concerns the target T1, 5-hydroxytryptamine receptor 2A (Rattus norvegicus, UniProt P14842). Briefly: Binding affinity against 5-hydroxytryptamine 2A receptor from rat forebrain using [3H]ketanserin as radioligand.
In assay [2] the target is T1, 5-hydroxytryptamine receptor 2A. Briefly: Binding affinity against 5-hydroxytryptamine 2A receptor expressed NIH3T3 cells using [3H]ketanserin. In kind it is cell-based.

T1 sequence (P14842 whole entry): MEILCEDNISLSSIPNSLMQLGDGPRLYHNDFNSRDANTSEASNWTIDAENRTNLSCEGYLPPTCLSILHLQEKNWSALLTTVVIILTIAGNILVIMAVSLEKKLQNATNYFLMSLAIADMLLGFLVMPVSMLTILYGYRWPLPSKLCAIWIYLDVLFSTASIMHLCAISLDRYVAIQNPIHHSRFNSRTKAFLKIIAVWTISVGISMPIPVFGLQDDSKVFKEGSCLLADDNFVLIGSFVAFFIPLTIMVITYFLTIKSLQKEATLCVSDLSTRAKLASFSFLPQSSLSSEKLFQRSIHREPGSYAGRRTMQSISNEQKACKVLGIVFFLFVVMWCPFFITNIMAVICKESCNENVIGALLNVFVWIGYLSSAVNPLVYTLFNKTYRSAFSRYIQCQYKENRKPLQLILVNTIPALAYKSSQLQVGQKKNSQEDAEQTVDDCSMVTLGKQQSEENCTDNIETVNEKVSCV

In general, Ki refers to a measure of affinity in units of concentration, obtained from inhibition or displacement. `CC(=C1CCN(C)CC1)c1ccccc1`: in assay [1], the Ki came out at 0.355 µM.

Take `CN1CCC(=C2c3ccccc3Oc3ccccc32)CC1`: the Ki in assay [1] turned out to be 0.004 µM.

In assay [2], `NCC1c2ccccc2Sc2ccccc21` gave a Ki of 0.065 µM.

For the compound `CN1CCC(=C2c3ccccc3CCc3ccccc32)CC1`, in assay [1], the Ki was 0.009 µM.

In assay [2], `NCC1c2ccccc2Oc2ccccc21` showed a Ki of 0.17 µM.

`CN1CCC(=C(c2ccccc2)c2ccccc2)CC1` gave an inhibition constant Ki in assay [1] of 0.013 µM.

As to `CN1CCC(=C2c3ccccc3-c3ccccc32)CC1`, the Ki in assay [1] came to 0.199 µM.

With `CN1CCC(=C2c3ccccc3Cc3ccccc32)CC1`, affinity in assay [2] was put at a Ki of 0.0007 µM.

`NCC1c2ccccc2CCc2ccccc21` yielded a Ki in assay [2] of 0.112 µM.

As to `CN1CCC(=C2c3ccccc3Sc3ccccc32)CC1` [PIMETHIXENE], the Ki in assay [1] was 0.0025 µM. In other words, the single-digit nanomolar range.
